{"source": "patent US20100068786A1", "about": "“METHODS AND COMPOSITIONS FOR REVERSING P-GLYCOPROTEIN MEDICATED DRUG RESISTANCE” (priority 2008, published 2010)", "key": {"[1]": {"test_system": "MCF-7/DX1", "details": "MCF-7/DX1 vs MCF-7 cells; cited from earlier work"}, "[2]": {"molecular_target": "T1, P-gp (Mus musculus, UniProt P21447)", "T1 construct": "A comparison of P-gp knock-out mice to their wild-type counterparts; host or cells: mouse, in vivo (blood-brain barrier)", "T1 sequence (P21447 whole entry)": "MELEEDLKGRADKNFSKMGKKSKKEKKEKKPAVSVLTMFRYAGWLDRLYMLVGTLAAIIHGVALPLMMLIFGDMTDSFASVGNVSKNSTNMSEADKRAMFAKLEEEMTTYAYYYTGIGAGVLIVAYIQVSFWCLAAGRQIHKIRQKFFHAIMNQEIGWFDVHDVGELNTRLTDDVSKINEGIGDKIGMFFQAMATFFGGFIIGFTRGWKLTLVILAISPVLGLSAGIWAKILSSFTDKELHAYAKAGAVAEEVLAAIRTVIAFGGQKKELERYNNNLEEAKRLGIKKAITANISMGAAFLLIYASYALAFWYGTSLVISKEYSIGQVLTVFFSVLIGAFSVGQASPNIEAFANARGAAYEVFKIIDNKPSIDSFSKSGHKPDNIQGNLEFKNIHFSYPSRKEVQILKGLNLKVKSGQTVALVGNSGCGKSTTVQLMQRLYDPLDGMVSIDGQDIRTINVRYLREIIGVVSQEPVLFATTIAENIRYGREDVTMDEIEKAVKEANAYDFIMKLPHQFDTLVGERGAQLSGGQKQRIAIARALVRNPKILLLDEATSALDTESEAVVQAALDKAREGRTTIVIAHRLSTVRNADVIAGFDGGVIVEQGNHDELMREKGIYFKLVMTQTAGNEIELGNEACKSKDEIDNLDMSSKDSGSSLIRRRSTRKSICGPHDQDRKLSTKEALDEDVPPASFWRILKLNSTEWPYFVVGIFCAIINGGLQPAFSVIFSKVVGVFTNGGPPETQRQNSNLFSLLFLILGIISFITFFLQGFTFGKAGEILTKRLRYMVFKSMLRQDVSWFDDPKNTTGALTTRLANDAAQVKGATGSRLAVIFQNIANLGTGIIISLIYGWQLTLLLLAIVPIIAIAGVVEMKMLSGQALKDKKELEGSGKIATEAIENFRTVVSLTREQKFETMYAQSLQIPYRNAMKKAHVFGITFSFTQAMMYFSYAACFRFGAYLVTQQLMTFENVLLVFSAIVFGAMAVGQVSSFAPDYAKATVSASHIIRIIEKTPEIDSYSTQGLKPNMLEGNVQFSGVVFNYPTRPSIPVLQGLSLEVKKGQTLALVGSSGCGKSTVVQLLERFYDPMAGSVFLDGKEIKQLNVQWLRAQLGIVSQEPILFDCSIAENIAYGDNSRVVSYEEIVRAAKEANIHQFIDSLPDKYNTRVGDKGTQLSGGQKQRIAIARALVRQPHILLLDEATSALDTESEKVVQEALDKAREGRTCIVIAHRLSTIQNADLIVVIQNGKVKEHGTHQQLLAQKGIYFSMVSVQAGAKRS", "details": "P-gp knock-out mice vs wild-type; cited from earlier work"}, "[3]": {"molecular_target": "T1, P-gp", "details": "co-administration in mice of P-gp inhibitor LY335979 and nelfinavir; cited from earlier work"}, "[4]": {"test_system": "implanted human glioblastomas", "details": "cited from earlier work"}, "[5]": {"test_system": "MCF-7/DX1 cells", "assay": "MTT cell viability assay, reversal of taxol resistance", "type": "cell-based, human", "details": "P-gp over-expressing MCF-7/DX1 cell line, FIG. 8", "experimental": "The inhibition of P-gp transport was evaluated with the prodrug dimers and monomer controls in the human carcinoma MCF7-DX1 cell line.\nThe P-gp-mediated multidrug resistance phenotype of cancer cells is characterized by the ability of cells to evade the cytotoxic effects of drugs that are substrates of P-gp and remain viable even at high extracellular drugs concentrations. One such compound is the cytostatic agent taxol, which is also a known P-gp substrate (Horwitz et al., 1993). Cells lines that over-express P-gp, such as the MCF-7/DX1 cell line, display a 3000-fold decrease in susceptibility to taxol (FIG. 8)."}}, "data": [{"smiles": "COc1cccc2c1C(=O)c1c(O)c3c(c(O)c1C2=O)C[C@@](O)(C(=O)CO)C[C@@H]3O[C@H]1C[C@H](N)[C@H](O)[C@H](C)O1", "note": "[doxorubicin]", "values": [{"measurement": "resistance to doxorubicin", "setting": "[1]", "result": 200, "unit": "fold"}]}, {"smiles": "Cc1c(O)cccc1C(=O)N[C@@H](CSc1ccccc1)[C@H](O)CN1C[C@H]2CCCC[C@H]2C[C@H]1C(=O)NC(C)(C)C", "note": "[nelfinavir]", "values": [{"measurement": "increase in brain penetration", "setting": "[2]", "result": 40, "unit": "fold"}, {"measurement": "increase in the level of the therapeutic agent in the brain", "setting": "[3]", "result": 25, "unit": "fold"}]}, {"smiles": "CC(C)(C)NC(=O)[C@@H]1C[C@@H]2CCCC[C@@H]2CN1C[C@@H](O)[C@H](Cc1ccccc1)NC(=O)[C@H](CC(N)=O)NC(=O)c1ccc2ccccc2n1", "note": "[saquinavir]", "values": [{"measurement": "increase in brain penetration", "setting": "[2]", "result": 10, "unit": "fold"}]}, {"smiles": "CC(=O)O[C@H]1C(=O)[C@@]2(C)[C@H]([C@H](OC(=O)c3ccccc3)[C@]3(O)C[C@H](OC(=O)[C@H](O)[C@@H](NC(=O)c4ccccc4)c4ccccc4)C(C)=C1C3(C)C)[C@]1(OC(C)=O)CO[C@@H]1C[C@@H]2O", "note": "[taxol, paclitaxel]", "values": [{"measurement": "reduction of growth of implanted human glioblastomas", "setting": "[4]; co-administration of paclitaxel with valspodar (PSC833) in mice", "result": 90, "unit": "%"}, {"measurement": "effect on tumor size", "setting": "[4]; treatment with either drug alone, mice", "result": "no effect"}, {"measurement": "decrease in susceptibility to taxol", "setting": "[5]", "result": 3000, "unit": "fold"}]}]}
